According to PubChem BioAssay (NCI):
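At the GI50, growth is halved. TGI denotes the concentration required for complete inhibition of growth.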

Tests used:
Assay in all cases: DTP human tumour cell line panel, 384-well format
[1] = test system: A549 NSCLC
[2] = test system: UACC-62 melanoma
[3] = test system: HT29 colon
[4] = test system: OVCAR-3 ovarian
[5] = test system: HOP-92 NSCLC
[6] = test system: BT-549 breast
[7] = test system: SNB-19 CNS
[8] = test system: CCRF-CEM leukemia
[9] = test system: OVCAR-8 ovarian
[10] = test system: MDA-MB-468 breast
[11] = test system: SK-MEL-28 melanoma
[12] = test system: KM12 colon
[13] = test system: NCI-H226 lung
[14] = test system: HCC-2998 colon
[15] = test system: EKVX NSCLC
[16] = test system: MDA-MB-435 melanoma
[17] = test system: MCF7 breast
[18] = test system: NCI-H522 lung
[19] = test system: ACHN renal
[20] = test system: TK-10 renal
[21] = test system: MALME-3M melanoma
[22] = test system: PC-3 prostate
[23] = test system: COLO 205 colon
[24] = test system: HS 578T breast
[25] = test system: SF-295 CNS
[26] = test system: SNB-75 CNS
[27] = test system: 786-0 renal
[28] = test system: SW-620 colon
[29] = test system: HCT-15 colon
[30] = test system: SK-MEL-5 melanoma
[31] = test system: K-562 leukemia
[32] = test system: NCI-H23 lung
[33] = test system: NCI-H322M lung
[34] = test system: SN12C renal
[35] = test system: A498 renal
[36] = test system: NCI-H460 NSCLC
[37] = test system: SF-539 CNS
[38] = test system: IGROV1 ovarian
[39] = test system: SF-268 CNS
[40] = test system: HCT-116 colon
[41] = test system: RPMI-8226 leukemia
[42] = test system: DU-145 prostate
[43] = test system: SK-OV-3 ovarian
[44] = test system: OVCAR-4 ovarian
[45] = test system: HOP-62 NSCLC
[46] = test system: M14 melanoma
[47] = test system: SK-MEL-2 melanoma
[48] = test system: LOX IMVI melanoma
[49] = test system: MOLT-4 leukemia
[50] = test system: UACC-257 melanoma
[51] = test system: HL-60(TB) leukemia
[52] = test system: NCI/ADR-RES ovarian
[53] = test system: CAKI-1 renal
[54] = test system: U251 glioblastoma
[55] = test system: RXF 393 renal

Cc1ccc(S(=O)(=O)Oc2ccc3sc4cccc(NCCN(C)C)c4c(=O)c3c2)cc1
GI50 [1]: 1.85 µM | TGI [1]: 3.34 µM | GI50 [2]: 1.94 µM | TGI [2]: 3.38 µM | GI50 [3]: 1.71 µM | TGI [3]: 3.1 µM | GI50 [4]: 1.91 µM | TGI [4]: 3.33 µM | GI50 [5]: 1.9 µM | TGI [5]: 3.32 µM | GI50 [6]: 1.86 µM | TGI [6]: 3.28 µM | GI50 [7]: 2.08 µM | TGI [7]: 3.54 µM | GI50 [8]: 1.7 µM | TGI [8]: 3.11 µM | GI50 [9]: 2.11 µM | TGI [9]: 3.59 µM | GI50 [10]: 2.49 µM | TGI [10]: 3.96 µM | GI50 [11]: 1.95 µM | TGI [11]: 3.38 µM | GI50 [12]: 1.79 µM | TGI [12]: 3.23 µM | GI50 [13]: 1.7 µM | TGI [13]: 3.08 µM | GI50 [14]: 1.24 µM | TGI [14]: 2.51 µM | GI50 [15]: 1.85 µM | TGI [15]: 3.28 µM | GI50 [16]: 1.78 µM | TGI [16]: 3.18 µM | GI50 [17]: 1.38 µM | TGI [17]: 2.71 µM | GI50 [18]: > 100 µM | TGI [18]: > 100 µM | GI50 [19]: 1.73 µM | TGI [19]: 3.14 µM | GI50 [20]: > 100 µM | TGI [20]: > 100 µM | GI50 [21]: 1.89 µM | TGI [21]: 3.31 µM | GI50 [22]: 1.81 µM | TGI [22]: 3.22 µM | GI50 [23]: 1.94 µM | TGI [23]: 3.4 µM | GI50 [24]: 1.92 µM | TGI [24]: 3.35 µM | GI50 [25]: > 100 µM | TGI [25]: > 100 µM | GI50 [26]: 2.09 µM | TGI [26]: 3.53 µM | GI50 [27]: > 100 µM | TGI [27]: > 100 µM | GI50 [28]: 1.88 µM | TGI [28]: 3.35 µM | GI50 [29]: > 100 µM | TGI [29]: > 100 µM | GI50 [30]: 1.29 µM | TGI [30]: 2.58 µM | GI50 [31]: 1.91 µM | TGI [31]: 3.33 µM | GI50 [32]: 1.99 µM | TGI [32]: 3.42 µM | GI50 [33]: 2.03 µM | TGI [33]: 3.48 µM | GI50 [34]: 1.91 µM | TGI [34]: 3.33 µM | GI50 [35]: > 100 µM | TGI [35]: > 100 µM | GI50 [36]: 1.72 µM | TGI [36]: 3.22 µM | GI50 [37]: 1.86 µM | TGI [37]: 3.29 µM | GI50 [38]: 1.65 µM | TGI [38]: 3.01 µM | GI50 [39]: 2.2 µM | TGI [39]: 3.67 µM | GI50 [40]: 1.83 µM | TGI [40]: 3.3 µM | GI50 [41]: 2.28 µM | TGI [41]: 3.75 µM | GI50 [42]: 1.97 µM | TGI [42]: 3.43 µM | GI50 [43]: 1.64 µM | TGI [43]: 3.02 µM | GI50 [44]: > 100 µM | TGI [44]: > 100 µM | GI50 [45]: 2.1 µM | TGI [45]: 3.56 µM | GI50 [46]: 2.05 µM | TGI [46]: 3.49 µM | GI50 [47]: 1.99 µM | TGI [47]: 3.42 µM | GI50 [48]: 1.78 µM | TGI [48]: 3.2 µM | GI50 [49]: 1.59 µM | TGI [49]: 2.95 µM | GI50 [50]: 1.89 µM | TGI [50]: 3.3 µM | GI50 [51]: 0.787 µM | TGI [51]: 2.06 µM | GI50 [52]: 1.83 µM | TGI [52]: 3.24 µM | GI50 [53]: 1.65 µM | TGI [53]: 3.04 µM | GI50 [54]: 2.07 µM | TGI [54]: 3.54 µM | GI50 [55]: 1.93 µM | TGI [55]: 3.36 µM
